This note sets out measurements from US10768179B2, “Method for predicting responsiveness to cancer treatment using p300-inhibiting compound” (National Cancer Center, priority 2014, dated 2020).

Molecules are shown by their SMILES.

Test [1] has as its system CBP-mutated lung cancer cells and lymphoma cells. Description: Sensitivity (survival rate, IC50) of cancer cell lines to p300 inhibitor C646. Format: cell-based. The method, then:
A549, H1299, H157, SQ5, H1703, LK2, H520 (NSCLC), RL, Loucy, RC-K8, U2932, Ramos, Farage, SUP-T1, WSU-NHL, VAL, SUDHL5, Jurkat, TE8, and TE10 were separately cultured in RPMI-1640 or DMEM supplemented with 10% fetal bovine serum (FBS). MRC-5 cells (normal fibroblasts), HEK293T cells (immortalized renal epithelial cells), and RPE-1 cells (immortalized retinal epithelial cells) were separately cultured in DMEM supplemented with 10% FBS.
The viability was determined by examining intracellular ATP level using CellTiter-Glo Luminescent Cell Viability Assay kit (Promega Corp.). Each cancer cell line was transfected with siRNA (50 nM) using Lipofectamine RNAiMAX (Invitrogen Corp.). Two days later, the cells were trypsinized, counted, and reseeded in specified numbers in 96-well plate. In order to measure the cell viability, CellTiter-Glo Luminescent Cell Viability Assay kit (Promega Corp.) was added to the cells, and […] was measured using Envision (PerkinElmer, Inc.).

For test [2], the system named is CBP-mutated cancer cells. Kind of test: Apoptosis analysis by Annexin V/PI staining after C646 treatment. In kind it is cell-based. The note with it: 48 hours and 96 hours after C646 treatment; FIG. 5B. The method, then: In order to detect apoptotic cells by flow cytometry, Annexin V-FITC/PI apoptosis detection kit (F. Hoffmann-La Roche, Ltd.) was used according to the manufacturer's instruction manual. Briefly, the cell pellet was suspended in a 1× binding buffer and incubated with Annexin V-FITC and PI for 20 minutes in the dark. Subsequently, the fluorescence of the cells was analyzed by flow cytometry.

As for `CC1=NN(c2ccc(C(=O)O)cc2)C(=O)/C1=C\c1ccc(-c2cc(C)c(C)cc2[N+](=O)[O-])o1` [C646], the “IC50 value for C646” value in test [1] (CBP-mutated vs CBP-proficient cancer cells, Student's t test, p<0.01, FIGS. 3B and 3D) is on record as “low tendency relative to CBP-proficient cancer cells”. For the same compound, in test [1] (CBP-mutated vs CBP-proficient lung cancer and lymphoma cell lines, FIGS. 3A and 3C), the “sensitivity to C646 (survival rates)” value is on record as “higher sensitivity of the CBP-mutated cancer cells to C646 than that of the CBP-proficient cancer cells”. The “induction of apoptosis (Annexin V stainability)” value in test [2] is “specifically suppresses the growth of CBP-mutated cancer cells by inducing apoptosis”.
